# According to the NIST ThermoML archive (doi:10.1021/je060052p):
# Numbers after ± are expanded uncertainties.
# Key:
# [1] = Liquid; for mass density / speed of sound: 298.15 K, 101.33 kPa; for vapor or sublimation pressure: Ebulliometric method (Recirculating still)
# [2] = refractive index (Na D-line) (dimensionless); settings: 298.15 K; 101.33 kPa; Liquid
# [3] = xn = mol fraction of the nth substance listed; settings: 298.15 K, 101 kPa, Liquid
# [4] = refractive index (Na D-line) (dimensionless); xn = mol fraction of the nth substance listed; settings: 298.15 K, 101 kPa, Liquid
structure (smiles),measurement,setting,value
CCOC(=O)C(C)O (racemic) [DL-ethyl lactate],mass density,[1],1028.02 ± 0.27 kg/m3
same,speed of sound,[1],1277 ± 3 m/s
same,vapor or sublimation pressure,[1]; 424.98 K,101.3 ± 1 kPa
same,refractive index,[2],1.4105 ± 0.0012
COC(C)=O [methyl ethanoate],mass density,[1],926.96 ± 0.3 kg/m3
same,speed of sound,[1],1148 ± 3 m/s
same,vapor or sublimation pressure,[1]; 330.03 K,101.3 ± 1 kPa
same,refractive index,[2],1.35865 ± 0.0012
CCOC(C)=O [ethyl acetate],mass density,[1],894.29 ± 0.34 kg/m3
same,speed of sound,[1],1138 ± 3 m/s
same,vapor or sublimation pressure,[1]; 350.25 K,101.3 ± 1 kPa
same,refractive index,[2],1.36978 ± 0.0012
CCOC(=O)C(C)O (stereo not drawn) [DL-ethyl lactate] + CCOC(C)=O,mass density,[3]; x2 = 0.049,1022.5 ± 0.34 kg/m3
same,speed of sound,[3]; x2 = 0.049,1267 ± 3 m/s
same,mass density,[3]; x2 = 0.1,1016.77 ± 0.34 kg/m3
same,speed of sound,[3]; x2 = 0.1,1263 ± 3 m/s
same,mass density,[3]; x2 = 0.15,1010.85 ± 0.34 kg/m3
same,speed of sound,[3]; x2 = 0.15,1256 ± 3 m/s
same,mass density,[3]; x2 = 0.2,1004.94 ± 0.34 kg/m3
same,speed of sound,[3]; x2 = 0.2,1249 ± 3 m/s
same,mass density,[3]; x2 = 0.251,998.8 ± 0.34 kg/m3
same,speed of sound,[3]; x2 = 0.251,1243 ± 3 m/s
same,mass density,[3]; x2 = 0.3,992.68 ± 0.35 kg/m3
same,speed of sound,[3]; x2 = 0.3,1236 ± 3 m/s
same,mass density,[3]; x2 = 0.35,986.4 ± 0.36 kg/m3
same,speed of sound,[3]; x2 = 0.35,1229 ± 3 m/s
same,mass density,[3]; x2 = 0.4,979.87 ± 0.36 kg/m3
same,speed of sound,[3]; x2 = 0.4,1222 ± 3 m/s
same,mass density,[3]; x2 = 0.45,973.59 ± 0.36 kg/m3
same,speed of sound,[3]; x2 = 0.45,1215 ± 3 m/s
same,mass density,[3]; x2 = 0.5,966.98 ± 0.37 kg/m3
same,speed of sound,[3]; x2 = 0.5,1208 ± 3 m/s
same,mass density,[3]; x2 = 0.55,960.41 ± 0.38 kg/m3
same,speed of sound,[3]; x2 = 0.55,1201 ± 3 m/s
same,mass density,[3]; x2 = 0.6,953.46 ± 0.39 kg/m3
same,speed of sound,[3]; x2 = 0.6,1194 ± 3 m/s
same,mass density,[3]; x2 = 0.65,946.64 ± 0.4 kg/m3
same,speed of sound,[3]; x2 = 0.65,1188 ± 3 m/s
same,mass density,[3]; x2 = 0.7,939.6 ± 0.41 kg/m3
same,speed of sound,[3]; x2 = 0.7,1180 ± 3 m/s
same,mass density,[3]; x2 = 0.756,931.41 ± 0.42 kg/m3
same,speed of sound,[3]; x2 = 0.756,1173 ± 3 m/s
same,mass density,[3]; x2 = 0.8,924.84 ± 0.42 kg/m3
same,speed of sound,[3]; x2 = 0.8,1167 ± 3 m/s
same,mass density,[3]; x2 = 0.849,917.72 ± 0.43 kg/m3
same,speed of sound,[3]; x2 = 0.849,1160 ± 3 m/s
same,mass density,[3]; x2 = 0.9,910.03 ± 0.44 kg/m3
same,speed of sound,[3]; x2 = 0.9,1153 ± 3 m/s
same,mass density,[3]; x2 = 0.95,902.37 ± 0.45 kg/m3
same,speed of sound,[3]; x2 = 0.95,1145 ± 3 m/s
same,refractive index,[4]; x2 = 0.049,1.4088 ± 0.0012
same,refractive index,[4]; x2 = 0.1,1.40722 ± 0.0012
same,refractive index,[4]; x2 = 0.15,1.40535 ± 0.0012
same,refractive index,[4]; x2 = 0.2,1.40357 ± 0.0012
same,refractive index,[4]; x2 = 0.251,1.40168 ± 0.0012
same,refractive index,[4]; x2 = 0.3,1.40005 ± 0.0012
same,refractive index,[4]; x2 = 0.35,1.39819 ± 0.0012
same,refractive index,[4]; x2 = 0.4,1.39623 ± 0.0012
same,refractive index,[4]; x2 = 0.45,1.39451 ± 0.0012
same,refractive index,[4]; x2 = 0.5,1.39263 ± 0.0012
same,refractive index,[4]; x2 = 0.55,1.3906 ± 0.0012
same,refractive index,[4]; x2 = 0.6,1.38855 ± 0.0012
same,refractive index,[4]; x2 = 0.65,1.38645 ± 0.0013
same,refractive index,[4]; x2 = 0.7,1.3842 ± 0.0013
same,refractive index,[4]; x2 = 0.756,1.38126 ± 0.0013
same,refractive index,[4]; x2 = 0.8,1.37923 ± 0.0013
same,refractive index,[4]; x2 = 0.849,1.37694 ± 0.0013
same,refractive index,[4]; x2 = 0.9,1.3747 ± 0.0013
same,refractive index,[4]; x2 = 0.95,1.3722 ± 0.0013
CCOC(=O)C(C)O (stereo not drawn) [DL-ethyl lactate] + COC(C)=O,mass density,[3]; x2 = 0.058,1024.62 ± 0.28 kg/m3
same,speed of sound,[3]; x2 = 0.058,1272 ± 3 m/s
same,mass density,[3]; x2 = 0.1,1021.03 ± 0.27 kg/m3
same,speed of sound,[3]; x2 = 0.1,1266 ± 3 m/s
same,mass density,[3]; x2 = 0.15,1017.3 ± 0.26 kg/m3
same,speed of sound,[3]; x2 = 0.15,1261 ± 3 m/s
same,mass density,[3]; x2 = 0.2,1013.63 ± 0.26 kg/m3
same,speed of sound,[3]; x2 = 0.2,1255 ± 3 m/s
same,mass density,[3]; x2 = 0.25,1009.78 ± 0.27 kg/m3
same,speed of sound,[3]; x2 = 0.25,1250 ± 3 m/s
same,mass density,[3]; x2 = 0.3,1005.46 ± 0.28 kg/m3
same,speed of sound,[3]; x2 = 0.3,1244 ± 3 m/s
same,mass density,[3]; x2 = 0.35,1001.13 ± 0.28 kg/m3
same,speed of sound,[3]; x2 = 0.35,1238 ± 3 m/s
same,mass density,[3]; x2 = 0.4,996.59 ± 0.28 kg/m3
same,speed of sound,[3]; x2 = 0.4,1232 ± 3 m/s
same,mass density,[3]; x2 = 0.45,992.2 ± 0.28 kg/m3
same,speed of sound,[3]; x2 = 0.45,1226 ± 3 m/s
same,mass density,[3]; x2 = 0.5,987.41 ± 0.29 kg/m3
same,speed of sound,[3]; x2 = 0.5,1220 ± 3 m/s
same,mass density,[3]; x2 = 0.55,982.34 ± 0.29 kg/m3
same,speed of sound,[3]; x2 = 0.55,1213 ± 3 m/s
same,mass density,[3]; x2 = 0.6,977.25 ± 0.3 kg/m3
same,speed of sound,[3]; x2 = 0.6,1207 ± 3 m/s
same,mass density,[3]; x2 = 0.65,972.03 ± 0.31 kg/m3
same,speed of sound,[3]; x2 = 0.65,1200 ± 3 m/s
same,mass density,[3]; x2 = 0.7,966.3 ± 0.32 kg/m3
same,speed of sound,[3]; x2 = 0.7,1193 ± 3 m/s
same,mass density,[3]; x2 = 0.75,960.47 ± 0.32 kg/m3
same,speed of sound,[3]; x2 = 0.75,1186 ± 3 m/s
same,mass density,[3]; x2 = 0.8,954.34 ± 0.33 kg/m3
same,speed of sound,[3]; x2 = 0.8,1180 ± 3 m/s
same,mass density,[3]; x2 = 0.85,947.87 ± 0.34 kg/m3
same,speed of sound,[3]; x2 = 0.85,1172 ± 3 m/s
same,mass density,[3]; x2 = 0.9,941.28 ± 0.35 kg/m3
same,speed of sound,[3]; x2 = 0.9,1164 ± 3 m/s
same,mass density,[3]; x2 = 0.95,934.27 ± 0.36 kg/m3
same,speed of sound,[3]; x2 = 0.95,1157 ± 3 m/s
same,refractive index,[4]; x2 = 0.058,1.40872 ± 0.0012
same,refractive index,[4]; x2 = 0.1,1.40699 ± 0.0012
same,refractive index,[4]; x2 = 0.15,1.40595 ± 0.0012
same,refractive index,[4]; x2 = 0.2,1.40379 ± 0.0012
same,refractive index,[4]; x2 = 0.25,1.4023 ± 0.0012
same,refractive index,[4]; x2 = 0.3,1.39968 ± 0.0013
same,refractive index,[4]; x2 = 0.35,1.39787 ± 0.0012
same,refractive index,[4]; x2 = 0.4,1.39628 ± 0.0012
same,refractive index,[4]; x2 = 0.45,1.39379 ± 0.0013
same,refractive index,[4]; x2 = 0.5,1.39125 ± 0.0013
same,refractive index,[4]; x2 = 0.55,1.3879 ± 0.0013
same,refractive index,[4]; x2 = 0.6,1.38498 ± 0.0013
same,refractive index,[4]; x2 = 0.65,1.38197 ± 0.0013
same,refractive index,[4]; x2 = 0.7,1.37916 ± 0.0013
same,refractive index,[4]; x2 = 0.75,1.37601 ± 0.0013
same,refractive index,[4]; x2 = 0.8,1.37278 ± 0.0013
same,refractive index,[4]; x2 = 0.85,1.3696 ± 0.0013
same,refractive index,[4]; x2 = 0.9,1.36642 ± 0.0013
same,refractive index,[4]; x2 = 0.95,1.36248 ± 0.0013
